Measured values reported in ChEMBL document CHEMBL3868594, “From lead optimization to NDA approval for a new antimicrobial: Use of pre-clinical effect models and pharmacokinetic/pharmacodynamic mathematical modeling” (2016).

Experiments:
Type in all cases: functional
[1] = system: Mycobacterium tuberculosis; assay: Antibacterial activity against linezolid-resistant Mycobacterium tuberculosis H37Rv in hollow-fiber infection model assessed as reduction in bacterial burden at 1116 mg, po at 24 hrs dose regimen measured after 3 weeks
[2] = system: Mycobacterium tuberculosis; assay: Antibacterial activity against linezolid-resistant Mycobacterium tuberculosis H37Rv in hollow-fiber infection model assessed as reduction in bacterial burden at 342 mg, po at 24 hrs dose regimen measured after 3 weeks
[3] = system: Mycobacterium tuberculosis; assay: Antibacterial activity against linezolid-resistant Mycobacterium tuberculosis H37Rv in hollow-fiber infection model assessed as reduction in bacterial burden at 858 mg, po at 24 hrs dose regimen measured after 3 weeks
[4] = system: Mycobacterium tuberculosis; assay: Antibacterial activity against linezolid-resistant Mycobacterium tuberculosis H37Rv in hollow-fiber infection model assessed as reduction in bacterial burden at 600 mg, po at 24 hrs dose regimen measured after 3 weeks

Question: `CC(=O)NC[C@H]1CN(c2ccc(N3CCOCC3)c(F)c2)C(=O)O1` [LINEZOLID] was tested. Which Activity [1] did it give?
Answer: 3 log10CFU/ml

Question: And the Activity [2]?
Answer: 0.5 log10CFU/ml

Question: What about the Activity [3] of the same compound?
Answer: 3 log10CFU/ml

Question: And the Activity [4]?
Answer: 1.7 log10CFU/ml
